From publication PMC9181938, “Fluorinated Analogues of Lepidilines A and C: Synthesis and Screening of Their Anticancer and Antiviral Activity” (Molecules, 2022)
Where two headings read alike, the source gives them in different places.

Tests used:
[1] = Cytotoxicity MTT assay (0.1–1000 µM), CC50; assay type: cell-based, Macaca mulatta; details: Macaca mulatta, LLC-MK2 cells
[2] = Cytotoxicity MTT assay (0.1–1000 µM), CC50; assay type: cell-based, Mus musculus; details: Mus musculus, NCTC clone 929 cells, Table S2, range 0.1-1000 µM, NCTC clone 929; read-out: Cell line (CC50 M) NCTC clone 929
[3] = Cytotoxicity MTT assay (0.1–1000 µM), CC50; assay type: cell-based, Human; details: human, HeLa cells
[4] = Cytotoxicity screening at 10 µM (MTT); assay type: cell-based, Macaca mulatta; details: Macaca mulatta, LLC-MK2 cells, read-out: Cell line (viability %) LLC-MK2
[5] = Cytotoxicity screening at 10 µM (MTT); assay type: cell-based, Mus musculus; details: Mus musculus, NCTC clone 929 cells, read-out: Cell line (viability %) NCTC clone 929
[6] = Cytotoxicity screening at 10 µM (MTT); assay type: cell-based, Human; details: human, MRC-5 cells, read-out: Cell line (viability %) MRC-5
[7] = Cytotoxicity screening at 10 µM (MTT); assay type: cell-based, Human; details: human, HeLa cells, read-out: Cell line (viability %) HeLa
[8] = tested on: Encephalomyocarditis virus (EMCV); assay: Antiviral activity assay (0.1–1000 µM), IC50; assay type: cell-based; details: Cardiovirus A, Table S4, range 0.1-1000 µM, read-out: IC50 (M) EMCV
Procedure, shortened: (§1)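 Confluent cell monolayers were infected (AdV5 and EMCV MOI 0.005, HPIV-3 MOI 0.01, 1-h adsorption; HCMV 20 PFU/well, 2-h adsorption), then incubated at 37 °C with compounds (0.1–1000 µM) in 2% FBS MEM until CPE appeared. Infection was read by MTT or, for HCMV, plaque counting. IC50 was the concentration halving plaques versus untreated infected controls.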

[9] = tested on: Human adenovirus 5 (AdV5); assay: Antiviral activity assay (0.1–1000 µM), IC50; assay type: cell-based; details: Human mastadenovirus C; Table S4, range 0.1-1000 µM, AdV5; read-out: IC50 (M) AdV5
Procedure, shortened: as §1

[10] = tested on: Human parainfluenza virus type 3 (HPIV-3); assay: Antiviral activity assay (0.1–1000 µM), IC50; assay type: cell-based; details: Human respirovirus 3, Table S4, range 0.1-1000 µM, HPIV-3; read-out: IC50 (M) HPIV-3
Procedure, shortened: as §1

For Cc1c(C)n(Cc2ccccc2)c(=S)n1Cc1ccccc1 [Compound 10a], the CC50 at 48 h ([1]; LLC-MK2, MTT, 48 h, read-out: CC50 Normal Cell Lines LLC-MK2) was < 20 µM, the CC50 at 48 h ([1]; Table S2, range 0.1-1000 µM, LLC-MK2, read-out: Cell line (CC50 M) LLC-MK2) was 16.2 ± 3.75 µM and the CC50 at 48 h [2] was 46 ± 6.93 µM. The CC50 at 48 h ([3]; MTT, 48 h, read-out: CC50 Cancer Cell Lines HeLa) was < 20 µM, the CC50 at 48 h ([3]; Table S2, range 0.1-1000 µM, read-out: Cell line (CC50 M) HeLa) was 16.9 ± 2.19 µM and the viability at 48 h, 10 µM [4] was 64.9%. The viability at 48 h, 10 µM [5] was 93.8%, the viability at 48 h, 10 µM [6] was 74.3% and the viability at 48 h, 10 µM [7] was 61.1%. For the same compound, the IC50 [8] was > 4.6e-05 M, the IC50 [9] was > 1.69e-05 M and the IC50 [10] was > 1.62e-05 M.
